Measured values: patent US20120225093A1, “Abrogating HIV-1 Infection via Drug-Induced Reactivation of Apoptosis” (UNIVERSITY OF MEDICINE AND DENTISTRY OF NEW JERSEY, priority 2010, published 2012)

Columns and labels:
[1] = system: HIV-1 promoter; assay: Dual luciferase assay, HIV-1 molecular clone pNL4-3-LucE- and derived constructs in 293T cells; type: cell-based; conditions: for inhibition of expression from construct VI: 3′-LTR replaced by SV40 poly(A) signal; for dose dependence of repression of expression from pNL4-3-LucE- / repression of luciferase expression (FF:Ren) from pNL4-3-LucE-: 12 hr post-transfection; for repression of luciferase expression (FF:Ren) from pNL4-3-LucE-: CPX 30 μM, DEF 250 μM, P2 30 μM; for inhibition of FF expression from construct V: all open reading frames deleted except luciferase; for inhibition of FF expression from constructs III and IV: within 12 hr, Tat-deficient constructs complemented with Tat vector
Protocol: Plasmids were introduced into 2×10^5 293T cells by transfection using Lipofectamine 2000 (Invitrogen) according to the manufacturer's instructions. Compounds (such as CPX or DEF) were added simultaneously. Cells were harvested at 12 hr post-transfection, washed with PBS, lysed in 0.15 ml of 1× passive lysis buffer (Promega), and assayed for luciferase activity using the Promega dual luciferase reporter system according to the manufacturer's instructions. Jurkat cells (1×10^6 cells) were transfected using FuGENE 6 (Roche) according to the manufacturer's instructions and assayed in a similar fashion after pelleting.
293T cells (10^5 cells/well of 12-well microplates) were seeded and transfected 20 hr later with a firefly luciferase (Luc)-expressing reporter plasmid and corresponding Renilla luciferase (Ren)-expressing reference plasmid using TransFectin™ (Bio-Rad, Hercules, Calif.). The bioavailable intracellular iron concentration was monitored using plasmids obtained from B. Galy and M. W. Hentze (EMBL, Heidelberg). Plasmid pcFIF-Luc contains the mouse ferritin H 5′-UTR with an iron response element (IRE) controlling Luc; pcFIRo-Ren is a similar construct expressing a mutated non-functional IRE fused to Ren. The activity of the HIV-1 promoter was monitored using the pNL4-3-Luc E molecular clone (Chen et al. (1994) J Virol 68: 654-660.), based on the recombinant infectious proviral clone that contains DNA from HIV isolates NY5 (5′ half) and IIIB (3′ half). This plasmid, obtained from D. Baltimore (Caltech, Pasadena), contains the Luc gene in place of 102 nucleotides from nef and 6 nucleotides from env. pCMV-Ren (Promega, Madison, Wis.) was used as reference for pNL4-3-Luc E. Compounds were added at the time of transfection. Cells were harvested 12 hr later, washed with phosphate-buffered saline, and lysed for the dual luciferase assay (Dual Luciferase™ Reporter Assay System; Promega, Madison, Wis.). Luc data were normalized to the Ren internal controls (Hogue et al. (2009) Retrovirology 6: 90.).
293T cells were selected as a model system to explore the relationship between the drugs, eIF5A and HIV gene expression. These cells efficiently transcribe HIV-1 genes from molecular clones as well as subviral constructs, allowing for early detection of changes in HIV gene expression. To establish the system, assays were carried out to examine the effect of CPX and DEF on the expression of firefly luciferase (FF) from the HIV-1 molecular clone, pNL4-3-LucE-, engineered to carry the FF gene in place of the viral nef gene. The molecular clone was transfected into 293T cells together with the pCMV-Ren vector that expresses Renilla luciferase (Ren) from the cytomegalovirus (CMV) immediate early promoter as a control for transfection efficiency and non-specific effects of the compounds. Dual luciferase assays were conducted at 12 hr post-transfection and results are expressed as relative luciferase activity (FF:Ren). […] Assays therefore were carried out to characterize the action of CPX and DEF on eIF5A and HIV gene expression in 293T cells during the first 12 to 24 hr of drug treatment.

[2] = system: eIF5A; assay: eIF5A maturation in 293T cells, immunoblot with NIH-353 antibody; type: cell-based, human; conditions: for concentration range reducing appearance of mature eIF5A: 293T transfected with FLAG-eIF5A, 24 hr
Protocol: Rabbit NIH-353 antibody was raised against mature human eIF5A (Cracchiolo et al. Gynecol Oncol 2004, 94:217-222). Antibody against DOHH was generated by M. H. Park. Anti-eIF5A-1 monoclonal antibody (BD) was purchased from BD Biosciences. The anti-FLAG monoclonal antibody M2 and anti-actin antibody were purchased from Sigma.
(§1) Immunoprecipitation and immunoblotting experiments were carried out as described previously in Hoque et al. Mol Cell Biol 2003, 23:1688-1702.
To examine the effect of the drugs on the synthesis of modified eIF5A, 293T cells transfected with a FLAG-tagged eIF5A expression vector were simultaneously treated with CPX or DEF. FLAG-eIF5A was monitored using NIH-353 and anti-FLAG antibodies (FIG. 2A,B). The NIH-353 antibody reacts preferentially with post-translationally modified eIF5A. CPX reduced the appearance of mature eIF5A over the 3-30 μM concentration range, while DEF was effective at 200-400 μM. […] In addition to the CPX homolog Agent P2, deferoxamine (DFOX; Desferal™) was used as a control compound.

[3] = biological target: T1, eIF5A:DOHH complex (Homo sapiens, UniProt Q9BU89); assay: Co-immunoprecipitation of eIF5A with DOHH from 293T cell extracts; type: cell-based; conditions: for interaction between endogenous eIF5A and tagged DOHH: 293T transfected with FLAG-DOHH; for association of endogenous DOHH with FLAG-eIF5A: CPX 30 μM, P2 30 μM, DEF 250 μM, DFOX 10 μM, GC7 10 μM, 24 hr
T1 construct: Endogenous DOHH co-immunoprecipitated with FLAG-eIF5A; expressed in transfected cells; host or cells: 293T cells (DOHH endogenous, FLAG-eIF5A transfected)
T1 sequence (Q9BU89 1-302): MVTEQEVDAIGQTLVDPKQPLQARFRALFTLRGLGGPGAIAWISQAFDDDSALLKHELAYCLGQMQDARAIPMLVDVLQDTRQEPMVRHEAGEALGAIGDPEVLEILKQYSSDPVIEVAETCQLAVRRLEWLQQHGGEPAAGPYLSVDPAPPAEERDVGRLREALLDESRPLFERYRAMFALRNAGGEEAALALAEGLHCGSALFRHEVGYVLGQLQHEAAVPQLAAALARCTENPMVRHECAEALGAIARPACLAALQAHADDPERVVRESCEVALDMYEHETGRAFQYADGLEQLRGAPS
Protocol: as §1
eIF5A forms tight complexes with its modifying enzymes. Unmodified eIF5A (lysine-50) immunoprecipitates with DHS and deoxyhypusyl-eIF5A interacts with DOHH in vitro. It was discovered that the deoxyhypusyl-eIF5A:DOHH complex formed in vivo can be detected by immunoprecipitation from cell extracts. Taking advantage of this finding, the effects of the drugs on the enzyme-substrate interaction were tested. FLAG-eIF5A was expressed in 293T cells and complexes that immunoprecipitated with anti-FLAG antibody were immunoblotted and probed with antibodies against DOHH. […] As a further control, the DHS inhibitor GC7 was included in this assay. […] As expected, none of the compounds affected the immunoprecipitation of FLAG-eIF5A (FIG. 2D, middle panel) or the expression of endogenous eIF5A (FIG. 2D, bottom panel). Reciprocally, the interaction between endogenous eIF5A and tagged DOHH was inhibited by CPX and DEF (FIG. 2E, right). Similarly, the interaction of endogenous eIF5A with tagged DHS was inhibited by GC7 (FIG. 2E, left) but resistant to CPX and DEF. It is concluded that CPX and DEF, but not P2 or DFOX, target DOHH and inhibit its interaction with its substrate, deoxyhypusylelF5A.

Structure (SMILES)	inhibition of expression from construct VI [1]	dose dependence of repression of expression from pNL4-3-LucE- [1]	repression of luciferase expression (FF:Ren) from pNL4-3-LucE- ([1]; DFOX 15 μM)	inhibition of FF expression from construct V [1]	inhibition of FF expression from constructs III and IV [1]	concentration range reducing appearance of mature eIF5A [2]	interaction between endogenous eIF5A and tagged DOHH [3]	association of endogenous DOHH with FLAG-eIF5A [3]	decrease of HIV-encoded luciferase expression ([1]; run parallel to IRE reporter (FIG. 11B), DFOX 15 μM)	effect on appearance of mature FLAG-eIF5A ([2]; 293T, control compounds)
Cc1cc(C2CCCCC2)n(O)c(=O)c1 [CPX, 6-cyclohexyl-1-hydroxy-4-methylpyridin-2[1H]-one]	~50%	repressed expression from the HIV-1 molecular clone in a dose dependent fashion	~50%	~50%	~50%	3 to 30 µM	inhibited	largely prevented		
Cc1ccn(O)c(=O)c1 [Agent P2, 1-hydroxy-4-methylpyridin-2[1H]-one]			ineffective					neither P2 or DFOX prevented the formation of the eIF5A:DOHH complex	no effect on either IRE-dependent or HIV-encoded luciferase expression	little or no effect
Cc1c(O)c(=O)ccn1C [DEF, 3-hydroxy-1,2-dimethylpyridin-4(1H)-one]	~50%	repressed expression from the HIV-1 molecular clone in a dose dependent fashion	~50%	~50%	~50%	200 to 400 µM	inhibited	largely prevented		
